In doi:10.1101/2021.06.15.448612v1 (biorxiv, 2021):

Biological target: MsbA (Escherichia coli, UniProt P60752)
Assay: isothermal titration calorimetry
Type: binding

MsbA, sequence (P60752 2-582): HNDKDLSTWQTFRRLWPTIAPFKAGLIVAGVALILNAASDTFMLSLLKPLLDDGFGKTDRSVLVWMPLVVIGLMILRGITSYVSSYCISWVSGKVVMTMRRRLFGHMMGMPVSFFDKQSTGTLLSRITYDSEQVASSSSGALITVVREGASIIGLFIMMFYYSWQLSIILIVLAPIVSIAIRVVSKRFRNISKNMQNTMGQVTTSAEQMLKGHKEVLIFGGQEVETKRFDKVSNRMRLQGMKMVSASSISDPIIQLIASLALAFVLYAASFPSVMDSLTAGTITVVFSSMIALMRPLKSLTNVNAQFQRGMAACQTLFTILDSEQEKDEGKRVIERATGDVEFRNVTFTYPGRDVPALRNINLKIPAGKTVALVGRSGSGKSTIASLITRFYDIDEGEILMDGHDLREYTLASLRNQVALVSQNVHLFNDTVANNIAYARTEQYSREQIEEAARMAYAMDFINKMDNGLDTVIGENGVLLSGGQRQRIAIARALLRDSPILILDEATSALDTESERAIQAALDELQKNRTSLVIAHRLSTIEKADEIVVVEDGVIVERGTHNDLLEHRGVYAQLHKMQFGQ

Kd: 5.1 µM
SMILES: Nc1ncnc2c1ncn2[C@@H]1O[C@H](COP(=O)(O)OP(=O)(O)NP(=O)(O)O)[C@@H](O)[C@H]1O [AMP-PNP]
